Here are results for 21 compounds from patent US10479780B2, “Aminopyrazole derivatives” (Chugai Seiyaku Kabushiki Kaisha, priority 2015, dated 2019).

Holding throughout (type): biochemical
In one test the target is T1, human Yes1 enzyme (Homo sapiens, UniProt P07947).
T1 construct: made in house
Put plainly: Yes1 enzyme inhibitory activity (time-resolved fluorometry, biotinylated peptide phosphorylation). The settings on record: biotinylated peptide phosphorylation, read-out: YES_IC50. In outline:
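Inhibition was expressed against a compound-free control to give IC50, using TR-FRET read-out (Eu-cryptate anti-pTyr antibody, streptavidin-XL665).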

A further test has as its target T2, human Src enzyme (Homo sapiens, UniProt P12931).
T2 construct: purchased Carna Biosciences, Inc. 08-173
Put plainly: Src enzyme inhibitory activity (time-resolved fluorometry, biotinylated peptide phosphorylation). The settings on record: biotinylated peptide phosphorylation, read-out: SRC_IC50. In outline:
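Compounds were tested for blocking tyrosine phosphorylation of a biotinylated peptide substrate by recombinant human Src. Phosphorylated product was quantified by time-resolved fluorometry using europium cryptate and XL665 conjugates, and IC50 was calculated against the compound-free control.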

The next test deals with T3, human Lck enzyme (Homo sapiens, UniProt P06239).
T3 construct: purchased Carna Biosciences, Inc. 08-170
T3 sequence (P06239 whole entry): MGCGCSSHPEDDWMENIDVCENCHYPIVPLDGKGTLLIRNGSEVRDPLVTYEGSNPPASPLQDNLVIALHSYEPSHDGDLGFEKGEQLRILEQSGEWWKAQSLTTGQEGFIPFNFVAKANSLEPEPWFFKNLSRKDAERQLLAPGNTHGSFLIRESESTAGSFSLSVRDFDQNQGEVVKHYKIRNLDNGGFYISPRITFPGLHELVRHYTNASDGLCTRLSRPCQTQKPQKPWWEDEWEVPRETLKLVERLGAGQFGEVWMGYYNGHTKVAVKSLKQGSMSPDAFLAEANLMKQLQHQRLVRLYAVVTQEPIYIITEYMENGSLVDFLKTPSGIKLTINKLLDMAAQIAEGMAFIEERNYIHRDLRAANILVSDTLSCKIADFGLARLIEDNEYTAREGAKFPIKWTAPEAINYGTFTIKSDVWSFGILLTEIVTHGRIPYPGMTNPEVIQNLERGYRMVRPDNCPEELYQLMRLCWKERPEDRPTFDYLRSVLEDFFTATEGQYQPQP
Put plainly: Lck enzyme inhibitory activity (time-resolved fluorometry, biotinylated peptide phosphorylation). Conditions: biotinylated peptide phosphorylation, read-out: LCK_IC50. In outline:
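Readout pairs a europium cryptate-labelled anti-phosphotyrosine antibody with XL665-streptavidin, measured by time-resolved fluorescence. IC50 derived from percent inhibition against untreated controls.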

T1 sequence (P07947 whole entry): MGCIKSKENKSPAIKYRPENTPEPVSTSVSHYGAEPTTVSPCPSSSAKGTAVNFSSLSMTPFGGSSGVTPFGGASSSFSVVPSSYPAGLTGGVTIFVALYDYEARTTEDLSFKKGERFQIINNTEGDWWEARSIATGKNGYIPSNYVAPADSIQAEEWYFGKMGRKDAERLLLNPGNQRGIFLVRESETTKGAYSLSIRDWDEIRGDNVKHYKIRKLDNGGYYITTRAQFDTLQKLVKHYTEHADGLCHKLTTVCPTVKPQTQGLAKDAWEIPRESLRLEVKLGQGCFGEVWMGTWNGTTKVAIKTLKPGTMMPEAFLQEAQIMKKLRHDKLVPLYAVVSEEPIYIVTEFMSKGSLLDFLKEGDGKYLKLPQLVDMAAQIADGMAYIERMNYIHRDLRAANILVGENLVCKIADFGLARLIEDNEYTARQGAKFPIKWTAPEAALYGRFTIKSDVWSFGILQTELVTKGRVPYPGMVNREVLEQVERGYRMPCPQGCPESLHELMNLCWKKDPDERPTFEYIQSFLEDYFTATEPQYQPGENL
T2 sequence (P12931 whole entry): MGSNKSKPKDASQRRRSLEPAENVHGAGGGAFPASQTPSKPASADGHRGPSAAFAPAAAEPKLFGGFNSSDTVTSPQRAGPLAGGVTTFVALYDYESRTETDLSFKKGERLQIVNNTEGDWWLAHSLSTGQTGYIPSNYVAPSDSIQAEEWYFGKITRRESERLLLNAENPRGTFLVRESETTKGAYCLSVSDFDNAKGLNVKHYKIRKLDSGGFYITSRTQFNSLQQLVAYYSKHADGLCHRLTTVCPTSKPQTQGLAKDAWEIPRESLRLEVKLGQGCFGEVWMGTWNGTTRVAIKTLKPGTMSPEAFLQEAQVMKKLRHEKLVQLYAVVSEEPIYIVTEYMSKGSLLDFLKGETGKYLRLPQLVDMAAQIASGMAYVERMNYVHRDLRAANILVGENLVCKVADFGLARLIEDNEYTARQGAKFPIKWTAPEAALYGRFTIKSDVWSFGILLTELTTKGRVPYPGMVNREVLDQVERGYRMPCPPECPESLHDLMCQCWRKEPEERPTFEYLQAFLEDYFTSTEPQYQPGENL

On to `Cc1cc(Oc2ccccc2F)ncc1-n1ncc(C(=O)c2cc3cc(F)c(NS(=O)(=O)N4CCOCC4)cc3[nH]2)c1N` [Example 4-5-001, N-{2-{5-amino-1-[6-(2-fluorophenoxy)-4-methylpyridin-3-yl]pyrazole-4-carbonyl}-5-fluoro-1H-indol-6-yl}morpholine-4-sulfonamide], for which the IC50 on human Yes1 enzyme was found to be 1.2 nM; at human Src enzyme, 120 nM; on human Lck enzyme it was 33 nM.

Turning to `Cc1cc(Oc2ccccc2F)ccc1-n1ncc(C(=O)c2cc3cc(F)c(NS(=O)(=O)N4CCOCC4)cc3[nH]2)c1N` [Example 4-5-002, N-[2-[5-amino-1-[4-(2-fluorophenoxy)-2-methylphenyl]pyrazole-4-carbonyl]-5-fluoro-1H-indol-6-yl]morpholine-4-sulfonamide], the IC50 on human Yes1 enzyme was found to be 0.76 nM; on human Src enzyme, 49 nM; at human Lck enzyme, 23 nM.

For the compound `Cc1cc(Oc2ccccc2F)ccc1-n1ncc(C(=O)c2cc3cc(F)c(NS(=O)(=O)NC4CCOCC4)cc3[nH]2)c1N` [Example 4-5-003, [5-amino-1-[4-(2-fluorophenoxy)-2-methylphenyl]pyrazol-4-yl]-[5-fluoro-6-(oxan-4-ylsulfamoylamino)-1H-indol-2-yl]methanone], the figures for the IC50 on human Yes1 enzyme, at human Src enzyme and on human Lck enzyme were 0.67 nM, 29 nM and 11 nM, respectively.

For `Cc1cc(Oc2ccccc2F)ccc1-n1ncc(C(=O)c2cc3cc(F)c(NS(=O)(=O)NC(C)C)cc3[nH]2)c1N` [Example 4-5-004, [5-amino-1-[4-(2-fluorophenoxy)-2-methylphenyl]pyrazol-4-yl]-[5-fluoro-6-(propan-2-ylsulfamoylamino)-1H-indol-2-yl]methanone], the IC50 at human Yes1 enzyme stood at 3.3 nM; at human Src enzyme, 65 nM; at human Lck enzyme it was 41 nM.

For `Cc1cc(Oc2ccccc2F)ccc1-n1ncc(C(=O)c2cc3cc(F)c(NS(=O)(=O)NC4COC4)cc3[nH]2)c1N` [Example 4-5-005, [5-amino-1-[4-(2-fluorophenoxy)-2-methylphenyl]pyrazol-4-yl]-[5-fluoro-6-(oxetan-3-ylsulfamoylamino)-1H-indol-2-yl]methanone], the IC50 turned out to be 0.51 nM on human Yes1 enzyme, 29 nM at human Src enzyme and 11 nM at human Lck enzyme.

For the compound `Cc1cc(Oc2ccccc2F)ccc1-n1ncc(C(=O)c2cc3cc(F)c(NS(=O)(=O)NC4CCC4)cc3[nH]2)c1N` [Example 4-5-006, [5-amino-1-[4-(2-fluorophenoxy)-2-methylphenyl]pyrazol-4-yl]-[6-(cyclobutylsulfamoylamino)-5-fluoro-1H-indol-2-yl]methanone], the IC50 on human Yes1 enzyme was 6.8 nM; on human Src enzyme, 140 nM; on human Lck enzyme it was 62 nM.

As to `COCCNS(=O)(=O)Nc1cc2[nH]c(C(=O)c3cnn(-c4ccc(Oc5ccccc5F)cc4C)c3N)cc2cc1F` [Example 4-5-007, [5-amino-1-[4-(2-fluorophenoxy)-2-methylphenyl]pyrazol-4-yl]-[5-fluoro-6-(2-methoxyethylsulfamoylamino)-1H-indol-2-yl]methanone], the IC50 on human Yes1 enzyme came out at 0.5 nM; on human Src enzyme, 33 nM; at human Lck enzyme, 18 nM.

`Cc1cc(Oc2ccccc2F)ccc1-n1ncc(C(=O)c2cc3cc(F)c(NS(=O)(=O)NC4(C)COC4)cc3[nH]2)c1N` [Example 4-5-008, [5-amino-1-[4-(2-fluorophenoxy)-2-methylphenyl]pyrazol-4-yl]-[5-fluoro-6-[(3-methyloxetan-3-yl)sulfamoylamino]-1H-indol-2-yl]methanone]: the IC50 on human Yes1 enzyme was 0.55 nM; at human Src enzyme it was 31 nM; at human Lck enzyme it was 8.2 nM.

As to `CONS(=O)(=O)Nc1cc2[nH]c(C(=O)c3cnn(-c4ccc(Oc5ccccc5F)cc4C)c3N)cc2cc1F` [Example 4-5-009, [5-amino-1-[4-(2-fluorophenoxy)-2-methylphenyl]pyrazol-4-yl]-[5-fluoro-6-(methoxysulfamoylamino)-1H-indol-2-yl]methanone], the IC50 on human Yes1 enzyme amounted to 0.68 nM; at human Src enzyme it was 35 nM; at human Lck enzyme, 12 nM.

Take `Cc1cc(Oc2ccccc2F)ccc1-n1ncc(C(=O)c2cc3cc(F)c(NS(=O)(=O)NC4CC4)cc3[nH]2)c1N` [Example 4-5-010, [5-amino-1-[4-(2-fluorophenoxy)-2-methylphenyl]pyrazol-4-yl]-[6-(cyclopropylsulfamoylamino)-5-fluoro-1H-indol-2-yl]methanone]: the IC50 on human Yes1 enzyme turned out to be 1.8 nM; on human Src enzyme it was 34 nM; at human Lck enzyme, 22 nM.

Take `Cc1cc(Oc2cccc(F)c2F)cc(F)c1-n1ncc(C(=O)c2cc3cc(F)c(NS(=O)(=O)N4CCOCC4)cc3[nH]2)c1N` [Example 4-5-011, N-[2-[5-amino-1-[4-(2,3-difluorophenoxy)-2-fluoro-6-methylphenyl]pyrazole-4-carbonyl]-5-fluoro-1H-indol-6-yl]morpholine-4-sulfonamide]: the IC50 came to 1.6 nM at human Yes1 enzyme, 110 nM on human Src enzyme and 65 nM at human Lck enzyme.

As to `Cc1cc(Oc2ccccc2F)ncc1-n1ncc(C(=O)c2cc3cc(F)c(NS(=O)(=O)NC4CCOCC4)cc3[nH]2)c1N` [Example 4-5-012, [5-amino-1-[6-(2-fluorophenoxy)-4-methylpyridin-3-yl]pyrazol-4-yl]-[5-fluoro-6-(oxan-4-ylsulfamoylamino)-1H-indol-2-yl]methanone], the values for the IC50 at human Yes1 enzyme, on human Src enzyme and at human Lck enzyme were 1 nM, 78 nM and 12 nM, respectively.

`Cc1cc(Oc2ccccc2F)ncc1-n1ncc(C(=O)c2cc3cc(F)c(NS(=O)(=O)NCCO)cc3[nH]2)c1N` [Example 4-6-001, {5-amino-1-[6-(2-fluorophenoxy)-4-methylpyridin-3-yl]pyrazol-4-yl}-[5-fluoro-6-(2-hydroxyethylsulfamoylamino)-1H-indol-2-yl]methanone]: the figures for the IC50 at human Yes1 enzyme, on human Src enzyme and on human Lck enzyme were 0.92 nM, 70 nM and 13 nM, respectively.

With `Cc1cc(Oc2ccccc2F)ccc1-n1ncc(C(=O)c2cc3cc(F)c(NS(=O)(=O)NCCO)cc3[nH]2)c1N` [Example 4-6-002, [5-amino-1-[4-(2-fluorophenoxy)-2-methylphenyl]pyrazol-4-yl]-[5-fluoro-6-(2-hydroxyethylsulfamoylamino)-1H-indol-2-yl]methanone], the IC50 at human Yes1 enzyme amounted to 0.35 nM; on human Src enzyme it was 16 nM; on human Lck enzyme, 4.6 nM.

As for `Cc1cc(Oc2ccccc2F)ccc1-n1ncc(C(=O)c2cc3cc(F)c(NS(=O)(=O)NC(C)(C)CO)cc3[nH]2)c1N` [Example 4-6-003, [5-amino-1-[4-(2-fluorophenoxy)-2-methylphenyl]pyrazol-4-yl]-[5-fluoro-6-[(1-hydroxy-2-methylpropan-2-yl)sulfamoylamino]-1H-indol-2-yl]methanone], the IC50 on human Yes1 enzyme was determined as 2.3 nM; on human Src enzyme, 88 nM; on human Lck enzyme, 22 nM.

Turning to `Cc1cc(Oc2ccccc2F)ccc1-n1ncc(C(=O)c2cc3cc(F)c(NS(=O)(=O)NCC(C)(C)O)cc3[nH]2)c1N` [Example 4-6-004, [5-amino-1-[4-(2-fluorophenoxy)-2-methylphenyl]pyrazol-4-yl]-[5-fluoro-6-[(2-hydroxy-2-methylpropyl)sulfamoylamino]-1H-indol-2-yl]methanone], the IC50 on human Yes1 enzyme was found to be 1.1 nM; on human Src enzyme, 41 nM; on human Lck enzyme, 6.9 nM.

Turning to `Cc1cc(Oc2ccccc2F)ncc1-n1ncc(C(=O)c2cc3cc(F)c(NS(C)(=O)=O)cc3[nH]2)c1N` [Example 4-7-001, N-{2-{5-amino-1-[6-(2-fluorophenoxy)-4-methylpyridin-3-yl]pyrazole-4-carbonyl}-5-fluoro-1H-indol-6-yl}methanesulfonamide], the IC50 on human Yes1 enzyme stood at 2.2 nM; at human Src enzyme it was 41 nM; at human Lck enzyme, 10 nM.

On to `Cc1cc(Oc2ccccc2F)ccc1-n1ncc(C(=O)c2cc3cc(F)c(NS(=O)(=O)CC4COCCO4)cc3[nH]2)c1N` (stereo not drawn) [Example 4-7-002, N-[2-[5-amino-1-[4-(2-fluorophenoxy)-2-methylphenyl]pyrazole-4-carbonyl]-5-fluoro-1H-indol-6-yl]-1-(1,4-dioxan-2-yl)methanesulfonamide], for which the IC50 at human Yes1 enzyme was 0.43 nM; on human Src enzyme, 9.5 nM; at human Lck enzyme it was 9.1 nM.

Take `Cc1cc(Oc2ccccc2F)cc(F)c1-n1ncc(C(=O)c2cc3cc(F)c(NS(C)(=O)=O)cc3[nH]2)c1N` [Example 4-7-003, N-[2-[5-amino-1-[2-fluoro-4-(2-fluorophenoxy)-6-methylphenyl]pyrazole-4-carbonyl]-5-fluoro-1H-indol-6-yl]methanesulfonamide]: the IC50 on human Yes1 enzyme amounted to 1 nM; at human Src enzyme, 19 nM; at human Lck enzyme, 7.1 nM.

`Cc1cc(Oc2ccccc2F)cc(F)c1-n1ncc(C(=O)c2cc3cc(F)c(NS(=O)(=O)C4CC4)cc3[nH]2)c1N` [Example 4-7-004, N-[2-[5-amino-1-[2-fluoro-4-(2-fluorophenoxy)-6-methylphenyl]pyrazole-4-carbonyl]-5-fluoro-1H-indol-6-yl]cyclopropanesulfonamide]: the IC50 on human Yes1 enzyme was 4.8 nM; on human Src enzyme it was 220 nM; at human Lck enzyme, 40 nM.

`Cc1cc(Oc2cccc(F)c2F)cc(F)c1-n1ncc(C(=O)c2cc3cc(F)c(NS(C)(=O)=O)cc3[nH]2)c1N` [Example 4-7-005, N-[2-[5-amino-1-[4-(2,3-difluorophenoxy)-2-fluoro-6-methylphenyl]pyrazole-4-carbonyl]-5-fluoro-1H-indol-6-yl]methanesulfonamide]: the IC50 at human Yes1 enzyme was found to be 2.8 nM; at human Src enzyme, 160 nM; on human Lck enzyme, 45 nM.
